Reference: PubChem BioAssay AID602356 (Sanford-Burnham Center for Chemical Genomics, 2012)
“And” between values parts separate entries of the source, which are not always exact repeats. Equal entries are not always repeated. The source made the active and inactive calls. No rule for the calls is given here.

These compounds were tested against Neurotensin receptor type 1 (Homo sapiens) (UniProt P30989) (assay: NTR1 agonists in analog series, SAR follow-up, imaging, image-based, set 3 (AID 602356)). Conditions: NTR1 image-based agonist assay, cellular imaging.
Neurotensin receptor type 1 (Homo sapiens), sequence (P30989 whole entry, looked up): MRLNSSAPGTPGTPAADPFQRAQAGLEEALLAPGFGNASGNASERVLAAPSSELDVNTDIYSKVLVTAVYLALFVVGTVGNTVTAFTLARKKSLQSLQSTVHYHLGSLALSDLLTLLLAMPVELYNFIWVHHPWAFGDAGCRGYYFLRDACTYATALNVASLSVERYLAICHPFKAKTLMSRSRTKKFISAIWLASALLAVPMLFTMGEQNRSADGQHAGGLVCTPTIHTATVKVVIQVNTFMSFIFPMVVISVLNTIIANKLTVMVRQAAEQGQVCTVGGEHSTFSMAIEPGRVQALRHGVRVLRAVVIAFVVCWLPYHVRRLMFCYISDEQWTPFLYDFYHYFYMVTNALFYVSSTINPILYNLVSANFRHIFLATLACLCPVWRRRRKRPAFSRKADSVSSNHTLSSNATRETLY

Row | EC50 | Compound
1 | > 80 µM (inactive) | COc1cc2nc(-c3ccccc3)nc(N3CCN(c4ccccc4)CC3)c2cc1OC
2 | inactive | COc1cc2nc(C3CC3)nc(N3CCN(Cc4ccc(C)cc4)CC3)c2cc1OC
3 | 1.44 µM | Cc1ccc(-c2nnc3c4cc5c(cc4n(Cc4ccccc4)cc2-3)OCO5)cc1C
4 | 10.9 µM | Fc1ccc(-c2nnc3c4cc5c(cc4n(Cc4ccccc4)cc2-3)OCO5)cc1
5 | inactive | CCc1ccc(-c2nnc3c4cc(OC)c(OC)cc4n(Cc4ccccc4)cc2-3)cc1
6 | inactive | COc1ccc(-c2nnc3c4ccccc4n(CC4CC4)cc2-3)cc1
7 | inactive | Cc1ccc(-c2nnc3c4cc5c(cc4n(Cc4ccccc4)cc2-3)OCO5)cc1
8 | inactive | COc1cc2c3nnc(-c4ccc(F)cc4)c-3cn(CC3CC3)c2cc1OC
9 | 19.9 µM | COc1cc2c3nnc(-c4ccccc4)c-3cn(Cc3ccccc3)c2cc1OC
10 | 11.2 µM | COc1ccc2c3nnc(-c4ccc(C)cc4)c-3cn(Cc3ccc(C)cc3)c2c1
11 | 3.76 µM | COc1cccc(OC)c1-c1nc(C(=O)N[C@@H](CC(C)C)C(=O)O)cn1-c1ccnc2ccccc12
12 | 3.95 µM | COc1cc2c3nnc(-c4ccc(F)cc4)c-3cn(Cc3ccccc3C)c2cc1OC
13 | > 80 µM (inactive) | COc1cc2ncc3c(-c4ccc(F)cc4)n[nH]c3c2cc1OC
14 | > 80 µM (inactive) | CCn1cc2c(-c3ccc(F)cc3)nnc-2c2cc(OC)c(OC)cc21
15 | inactive | Cc1ccc(-c2nnc3c4cc5c(cc4n(Cc4ccc(F)cc4)cc2-3)OCO5)cc1C
16 | 13.8 µM | COc1cc2nc(Cc3ccccc3)nc(N3CCN(c4ccccc4OC)CC3)c2cc1OC
17 | > 80 µM (inactive) | CCOc1cc2nc(-c3ccc(OC)c(OC)c3)nc(N3CCN(c4ccccc4)CC3)c2cc1OC
18 | 11.1 µM | COc1cc2c3nnc(-c4ccc(F)cc4)c-3cn(Cc3ccc(F)cc3)c2cc1OC
19 | 9.12 µM | Fc1ccc(Cn2cc3c(-c4ccc(Cl)cc4)nnc-3c3cc4c(cc32)OCO4)cc1

Row | EC50 | Compound
20 | inactive | c1ccc(Cn2cc3c(-c4ccccc4)nnc-3c3ccccc32)cc1
21 | > 80 µM (inactive) | COc1ccc(-c2nnc3c4cc(OC)c(OC)cc4n(Cc4ccc(F)cc4)cc2-3)cc1
22 | 0.966 µM | COc1ccccc1-c1cc(C(=O)N[C@@H](CC(C)C)C(=O)O)nn1-c1ccnc2cc(Cl)ccc12
23 | > 80 µM (inactive) | Clc1ccc(-c2nnc3c4cc5c(cc4n(Cc4ccccc4)cc2-3)OCO5)cc1
24 | > 80 µM (inactive) | Cc1ccc(Cn2cc3c(-c4ccc(F)cc4)nnc-3c3ccccc32)cc1
25 | > 80 µM (inactive) | COc1cccc(OC)c1-c1cc(C(=O)O)nn1-c1ccnc2cc(Cl)ccc12
26 | > 80 µM (inactive) | COc1cc2c3nnc(-c4ccc(F)cc4)c-3cn(Cc3cccc(N(C)C)c3)c2cc1OC
27 | 18.1 µM | COc1cc2c3nnc(-c4ccc(Cl)cc4)c-3cn(Cc3ccc(C)cc3)c2cc1OC
28 | inactive | COc1cc2c3nnc(-c4ccc(C)cc4)c-3cn(Cc3ccccc3)c2cc1OC
29 | 11.2 µM | COc1ccc2c3nnc(-c4ccc(C)cc4)c-3cn(Cc3ccc(F)cc3)c2c1
30 | > 80 µM (inactive) | COc1cc2c3nnc(-c4ccc(F)cc4)c-3cn(Cc3cccnc3)c2cc1OC
31 | inactive | CC(C)C[C@H](NC(=O)c1cn(-c2ccnc3cc(Cl)ccc23)c(-c2ccccc2)n1)C(=O)O
32 | inactive | COc1ccccc1-c1nc(C(=O)N[C@@H](CC(C)C)C(=O)O)cn1-c1ccnc2cc(Cl)ccc12
33 | > 80 µM (inactive) | CCOc1cc2nc(-c3ccc(OC)c(OC)c3)nc(N3CCN(c4ccccc4F)CC3)c2cc1OC
34 | > 80 µM (inactive) | COc1cc2c3nnc(-c4ccc(F)cc4)c-3cn(Cc3ccc(N(C)C)cc3)c2cc1OC
35 | 8.92 µM | CCOc1ccc(-c2nnc3c4cc(OC)c(OC)cc4n(Cc4ccccc4)cc2-3)cc1
36 | inactive | COc1ccc(-c2nnc3c4ccccc4n(Cc4ccc(OC(F)(F)F)cc4)cc2-3)cc1
37 | 8.11 µM | COc1ccc(Cn2cc3c(-c4ccc(F)cc4)nnc-3c3cc(OC)c(OC)cc32)cc1
38 | 5.82 µM | COc1cc2c3nnc(-c4ccc(F)cc4)c-3cn(Cc3ccc(C)cc3C)c2cc1OC

Row | EC50 | Compound
39 | > 80 µM (inactive) | COc1ccc2c(c1)c1nnc(-c3ccc(F)cc3)c-1cn2Cc1ccc(C)cc1
40 | > 80 µM (inactive) | COc1ccc(Cn2cc3c(-c4ccc(OC)cc4)nnc-3c3ccccc32)cc1
41 | > 80 µM (inactive) | COc1ccc(-c2nnc3c4ccccc4n(Cc4ccc(C)cc4)cc2-3)cc1
42 | > 80 µM (inactive) | CCn1cc2c(-c3ccc(OC)cc3)nnc-2c2ccccc21
43 | 16.6 µM | COc1cc2c3nnc(-c4ccccc4)c-3cn(Cc3ccc(F)cc3)c2cc1OC
44 | 4.9 µM | COc1cc2c3nnc(-c4ccc(C)c(C)c4)c-3cn(Cc3ccc(C)cc3)c2cc1OC
45 | 12.3 µM | COc1cc2c3nnc(-c4ccc(F)cc4)c-3cn(Cc3ccc(OC(F)(F)F)cc3)c2cc1OC
46 | > 80 µM (inactive) | COc1ccc(-c2nnc3c4ccccc4n(Cc4ccncc4)cc2-3)cc1
47 | 7.29 µM | Fc1ccc(Cn2cc3c(-c4ccc(F)cc4)nnc-3c3cc4c(cc32)OCO4)cc1
48 | 6.4 µM | COc1cc2c3nnc(-c4ccc(C)cc4)c-3cn(Cc3ccc(F)cc3)c2cc1OC
49 | > 80 µM (inactive) | COc1cc2nc(-c3ccccc3)nc(N3CCN(c4ccccc4F)CC3)c2cc1OC
50 | 4.15 µM | COc1cc2c3nnc(-c4ccc(Cl)cc4)c-3cn(Cc3ccccc3)c2cc1OC
51 | 7.54 µM | COc1cc2c3nnc(-c4ccc(F)cc4)c-3cn(Cc3ccc(Cl)cc3)c2cc1OC
52 | inactive | COc1ccc(-c2nnc3c4ccccc4n(Cc4ccc(Cl)cc4)cc2-3)cc1
53 | 6.34 µM and 6.55 µM | COc1cc2c3nnc(-c4ccc(F)cc4)c-3cn(Cc3cccc(C)c3)c2cc1OC
54 | 2.31 µM and 4.47 µM | COc1cccc(OC)c1-c1nc(C(=O)N[C@@H](CC(C)C)C(=O)O)cn1-c1cccc2ccccc12
55 | 4.36 µM and 4.14 µM | COc1cc2c3nnc(-c4ccc(F)cc4)c-3cn(Cc3ccccc3N(C)C)c2cc1OC
56 | 18.4 µM | COc1cc2c3nnc(-c4ccc(F)cc4)c-3cn(Cc3ccncc3)c2cc1OC

Second part, the compound before the results:

Row | Compound | EC50
57 | COc1ccc(N2CCN(c3nc(C4CCC4)nc4cc(OC)c(OC)cc34)CC2)c(OC)c1 | inactive
58 | COc1cccc(OC)c1-c1nc(C(=O)N[C@@H](CC(C)C)C(=O)O)cn1-c1ccncc1 | inactive
59 | COc1cc2nc(CCN3CCN(c4ccccc4OC)CC3)nc(N3CCN(c4ccccc4OC)CC3)c2cc1OC | inactive
60 | COc1cccc(OC)c1-c1cc(C(=O)N[C@@H](CC(C)C)C(=O)O)nn1-c1ccnc2cc(Cl)ccc12 | 0.232 µM
61 | COc1ccc2c(N3CCN(c4ccccc4OC)CC3)nc(C3CCC3)nc2c1 | inactive
62 | COc1cccc(OC)c1-c1nc(C(=O)N[C@@H](CC(C)C)C(=O)O)cn1-c1ccnc2cc(Cl)ccc12 | 2.01 µM and 4.14 µM
63 | COc1cc2nc(C3CCC3)nc(N3CCN(c4ccccc4Cl)CC3)c2cc1OC | 12.2 µM
64 | COc1cccc(OC)c1-c1nc(C(=O)NC2(C(=O)O)C3CC4CC(C3)CC2C4)cn1-c1ccnc2cc(Cl)ccc12 (stereo not drawn) | inactive
65 | COc1cc2nc(C3CCC3)nc(N3CCN(c4ccccc4[N+](=O)[O-])CC3)c2cc1OC | inactive
66 | COc1cccc(OC)c1-c1cc(C(=O)NC2(C(=O)O)C3CC4CC(C3)CC2C4)nn1-c1ccc(C(=O)N(C)CCCN(C)C)cc1C(C)C (stereo not drawn) | > 80 µM (inactive)
67 | CCOc1cc2c(N3CCN(c4ccccc4OC)CC3)nc(-c3ccc(OC)c(OC)c3)nc2cc1OC | > 80 µM (inactive)
68 | COc1cc2nc(C)nc(N3CCN(c4ccccc4OC)CC3)c2cc1OC | > 80 µM (inactive)
69 | CC(C)C[C@H](NC(=O)c1cn(-c2ccncc2)c(-c2ccccc2)n1)C(=O)O | > 80 µM (inactive)
70 | COc1cc2nc(CCN(C)C)nc(N3CCN(c4ccccc4OC)CC3)c2cc1OC | > 80 µM (inactive)
71 | COc1cc2nc(C3CCC3)nc(N3CCN(c4ccccn4)CC3)c2cc1OC | inactive
72 | CCCc1nc(N2CCN(c3ccccc3OC)CC2)c2cc(OC)c(OC)cc2n1 | 16.6 µM
73 | COc1cc2nc(C3CC3)nc(N3CCNCC3)c2cc1OC | > 80 µM (inactive)
74 | COc1ccccc1-c1cc(C(=O)N[C@@H](CC(C)C)C(=O)OC(C)(C)C)nn1-c1ccnc2cc(Cl)ccc12 | 5.01 µM
75 | COc1cccc(OC)c1-c1nc(C(=O)N[C@@H](CC(C)C)C(=O)O)cn1-c1ccc(C)cc1 | > 80 µM (inactive)

Row | Compound | EC50
76 | COc1cc2nc(C3CCCC3)nc(N3CCN(c4ccccc4OC)CC3)c2cc1OC | 5.79 µM
77 | COc1cc2nc(C3CC3)nc(N3CCN(C(=O)c4ccccc4)CC3)c2cc1OC | inactive
78 | COc1cc2nc(C3CCC3)nc(N3CCN(c4c(C)cccc4C)CC3)c2cc1OC | inactive
79 | COc1cccc(OC)c1-c1cc(C(=O)N[C@@H](CC(C)C)C(=O)OC(C)(C)C)nn1-c1ccnc2cc(Cl)ccc12 | 1.35 µM
80 | C=Cc1nc(N2CCN(c3ccccc3OC)CC2)c2cc(OC)c(OC)cc2n1 | 7.03 µM
81 | COc1cc2nc(C3CC3)nc(N3CCN(C(=O)c4ccccc4OC)CC3)c2cc1OC | inactive
82 | COc1cc2nc(C(C)C)nc(N3CCN(c4ccccc4OC)CC3)c2cc1OC | 7.65 µM
83 | COc1cc2nc(C3CCC3)nc(N3CCN(c4ccccc4F)CC3)c2cc1OC | 17.7 µM
84 | COc1ccc(N2CCN(c3nc(C4CCC4)nc4cc(OC)c(OC)cc34)CC2)cc1 | inactive
85 | CCOc1ccccc1N1CCN(c2nc(C3CC3)nc3cc(OC)c(OC)cc23)CC1 | 6.08 µM
86 | COc1cc2nc(C3CCC3)nc(N3CCN(c4ccccc4)CC3)c2cc1OC | 12.1 µM
87 | COc1cccc(N2CCN(c3nc(C4CCC4)nc4cc(OC)c(OC)cc34)CC2)c1 | 17.2 µM
88 | COc1cc2nc(C3CCC3)nc(N3CCN(c4ccccc4C)CC3)c2cc1OC | 14.9 µM
89 | COc1ccc2nc(C3CC3)nc(N3CCN(c4ccccc4OC)CC3)c2c1 | 4.1 µM
90 | COc1cccc(OC)c1-c1nc(C(=O)O)cn1-c1ccncc1 | > 80 µM (inactive)
91 | COc1ccccc1N1CCN(c2nc(C3CCC3)nc3ccccc23)CC1 | inactive
92 | COc1cccc(OC)c1-c1cc(C(=O)NC2(C(=O)O)C3CC4CC(C3)CC2C4)nn1-c1ccnc2cc(Cl)ccc12 (stereo not drawn) | inactive
93 | COc1cc2nc(C3CC3)nc(N3CCN(S(=O)(=O)c4ccccc4)CC3)c2cc1OC | > 80 µM (inactive)
